From patent US11752131B2, “Methods and pharmaceutical compositions for the treatment of obesity” (INSERM (Institut National de la Sante et de la Recherche …, priority 2016, dated 2023)

What was measured:
HFD-fed mice [1] = test: Insulin tolerance test (ITT) in HFD-fed mice; format: in vivo; details: after 9 wks of HFD (FIG. 2A) and 20 wks of FAT diet (FIG. 2B), insulin 0.75 U/kg i.p., adjusted on percentage of fat mass gained
Protocol: (§1) C57BL/6 Ido-1−/− mice were from the Jackson Laboratory. Seven week-old Bl6 and Idoko male mice were subjected to HFD containing 60% fat during 20 weeks.
Insulin tolerance tests (ITT) was performed in mice food deprived 5 h prior intraperitoneal injection of insulin (0.75 U/kg). Blood was sampled from the tail vein at 0, 5, 15, 30, 60 and 120 min in order to assay glucose concentration (glucometer, France).
We next examined the effect of Ido deficiency or inhibition on glucose homeostasis in HFD-fed mice. To this end, we performed insulin tolerance tests (ITT) on Bl6, Idoko mice and Ido inhibitor (L-1 methyl tryptophan, L-1MT)-treated mice after 9 wks or 20 wks of HFD.

HFD-fed mice [2] = test: Oral glucose tolerance test (OGTT) with HOMA-IR index in HFD-fed mice; format: in vivo; details: after 9 or 20 wks of HFD, normalized to fat mass (FIG. 3), versus Bl6 mice
Protocol: as §1
The oral glucose tolerance test was performed in mice food deprived for overnight prior to an oral administration of 3 g/kg glucose. Blood was sampled from the tail vein at 0, 5, 15, 30, 60 and 120 min in order to assay glucose concentration (glucometer, France). Plasma insulin concentration was measured using ELISA kit (Crystal Chem Inc., Downers Grove, Ill., USA). HOMA-IR in mice was calculated using the equation (fasting glucose concentration×fasting insulin concentration)/405).
Moreover, the insulin resistance index (HOMA-IR) was lower in Ido KO mice or L1MT-treated mice after 9 or 20 wks of HFD (FIG. 3).

Cn1cc(C[C@H](N)C(=O)O)c2ccccc21 [L-1MT, L-1 methyl tryptophan]
insulin sensitivity in insulin tolerance test (ITT) versus Bl6 mice (HFD-fed mice [1]): more insulin sensitive
insulin resistance index (HOMA-IR) (HFD-fed mice [2]): lower
